Where “and” joins values, the source holds several entries; their conditions need not be identical. Identical values can stand only once. Inconclusive results and toxic doses are left out. The calls were made as follows: active = survival T/C of 150% or more; inactive = T/C below 125% in these data.
Test system: CD2F1 mice, L1210 leukemia ip, survival T/C
Test: NCI In Vivo Anticancer Drug Screen. Data for tumor model L1210 Leukemia (intraperitoneal) in CD2F1 (CDF1) mice
Conditions: higher = longer survival
Procedure, shortened: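 Compound-dosed mice with transplantable tumor versus matched vehicle controls; endpoint ratio T/C reported.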

[1] = endpoint: mean survival time, dose: 100.0 mg/kg/injection, schedule: Q01DX009 (ip), vehicle: saline with Tween-80
[2] = endpoint: mean survival time, dose: 200.0 mg/kg/injection, schedule: Q01DX009 (ip), vehicle: saline with Tween-80

Measured: T/C

CSc1ncnc2c1cnn2C1OC(COC(C)=O)C(OC(C)=O)C1OC(C)=O (configuration not stated)
inactive: endpoint: median survival time, dose: 9.0 mg/kg/injection, schedule: Q01DX005 (ip), vehicle: distilled water + Tween-80 101 % of control | endpoint: median survival time, dose: 9.0 mg/kg/injection, schedule: Q01DX009 (ip), vehicle: distilled water + Tween-80 100 % of control | endpoint: median survival time, dose: 18.0 mg/kg/injection, schedule: Q01DX005 (ip), vehicle: distilled water + Tween-80 98 % of control | endpoint: median survival time, dose: 18.0 mg/kg/injection, schedule: Q01DX009 (ip), vehicle: distilled water + Tween-80 101 % of control | endpoint: median survival time, dose: 36.0 mg/kg/injection, schedule: Q01DX005 (ip), vehicle: distilled water + Tween-80 108 % of control | endpoint: median survival time, dose: 36.0 mg/kg/injection, schedule: Q01DX009 (ip), vehicle: distilled water + Tween-80 100 % of control | endpoint: median survival time, dose: 72.0 mg/kg/injection, schedule: Q01DX009 (ip), vehicle: distilled water + Tween-80 107 % of control | endpoint: median survival time, dose: 144.0 mg/kg/injection, schedule: Q01DX005 (ip), vehicle: distilled water + Tween-80 118 % of control | endpoint: median survival time, dose: 144.0 mg/kg/injection, schedule: Q01DX009 (ip), vehicle: distilled water + Tween-80 113 % of control

COC(=O)NC1C(C)OC(OC2C/C=C(/C)C3C=CC4C(OC5CC(OC6CC(OC7CC(O)C(O)C(C)O7)C(OC7CC(O)C(OC)C(C)O7)C(C)O6)C(O)C(C)O5)C(C)CC(C)C4C3(C)/C(O)=C3\C(=O)OC4(CC(C)C(CO)=CC4/C=C\2C)C3=O)CC1(C)[N+](=O)[O-] (configuration not stated)
inactive: endpoint: median survival time, dose: 12.5 mg/kg/injection, schedule: Q01DX009 (ip), vehicle: water 109 % of control | endpoint: median survival time, dose: 25.0 mg/kg/injection, schedule: Q01DX009 (ip), vehicle: water 118 % of control | endpoint: median survival time, dose: 50.0 mg/kg/injection, schedule: Q01DX009 (ip), vehicle: water 110 % of control

CN(C)c1ccc(N=Nc2ccc(C(=O)Cl)cc2)cc1
inactive: endpoint: mean survival time, dose: 50.0 mg/kg/injection, schedule: Q01DX009 (ip), vehicle: Klucel (hydroxypropylcellulose) (HPC) 98 % of control | endpoint: mean survival time, dose: 100.0 mg/kg/injection, schedule: Q01DX009 (ip), vehicle: Klucel (hydroxypropylcellulose) (HPC) 91 % of control | endpoint: mean survival time, dose: 200.0 mg/kg/injection, schedule: Q01DX009 (ip), vehicle: Klucel (hydroxypropylcellulose) (HPC) 94 % of control

C=CCOCCC#N
inactive: [1] 95 % of control

Nc1nc(Br)c2ccccc2c1-c1ccc([N+](=O)[O-])cc1
inactive: endpoint: mean survival time, dose: 50.0 mg/kg/injection, schedule: Q04DX003 (ip), vehicle: DMSO 98 % of control | endpoint: mean survival time, dose: 100.0 mg/kg/injection, schedule: Q04DX003 (ip), vehicle: DMSO 96 % of control | endpoint: mean survival time, dose: 200.0 mg/kg/injection, schedule: Q04DX003 (ip), vehicle: DMSO 95 % of control | endpoint: mean survival time, dose: 400.0 mg/kg/injection, schedule: Q04DX003 (ip), vehicle: DMSO 95 % of control

[C-]#[N+]C1CCCCC1.[C-]#[N+]C1CCCCC1.[Pd].[S-]c1ccccc1.[S-]c1ccccc1
inactive: endpoint: mean survival time, dose: 3.13 mg/kg/injection, schedule: Q04DX003 (ip), vehicle: distilled water + Tween-80 102 % of control | endpoint: mean survival time, dose: 6.25 mg/kg/injection, schedule: Q04DX003 (ip), vehicle: distilled water + Tween-80 99 % of control | endpoint: mean survival time, dose: 12.5 mg/kg/injection, schedule: Q04DX003 (ip), vehicle: distilled water + Tween-80 89 % of control | endpoint: mean survival time, dose: 25.0 mg/kg/injection, schedule: Q04DX003 (ip), vehicle: distilled water + Tween-80 91 % of control | endpoint: mean survival time, dose: 50.0 mg/kg/injection, schedule: Q04DX003 (ip), vehicle: distilled water + Tween-80 95 % of control | endpoint: mean survival time, dose: 100.0 mg/kg/injection, schedule: Q04DX003 (ip), vehicle: distilled water + Tween-80 89 % of control | endpoint: mean survival time, dose: 200.0 mg/kg/injection, schedule: Q04DX003 (ip), vehicle: distilled water + Tween-80 95 % of control

OC1CCCC/C1=C/C=C/c1ccccc1 (configuration not stated)
inactive: [1] 92 % of control and 91 % of control | [2] 94 % of control and 92 % of control | endpoint: mean survival time, dose: 400.0 mg/kg/injection, schedule: Q01DX009 (ip), vehicle: saline with Tween-80 93 % of control

CC(=O)Nc1ccc(C(=O)C=O)cc1
inactive: endpoint: mean survival time, dose: 6.25 mg/kg/injection, schedule: Q01DX009 (ip), vehicle: saline with Tween-80 103 % of control | endpoint: mean survival time, dose: 12.5 mg/kg/injection, schedule: Q01DX009 (ip), vehicle: saline with Tween-80 110 % of control | endpoint: mean survival time, dose: 25.0 mg/kg/injection, schedule: Q01DX009 (ip), vehicle: saline with Tween-80 107 % of control | endpoint: mean survival time, dose: 50.0 mg/kg/injection, schedule: Q01DX009 (ip), vehicle: saline with Tween-80 113 % of control | [1] 110 % of control | [2] 103 % of control

COC(=O)C1C2C=CC(CC2)C1C(=O)OC (configuration not stated)
inactive: endpoint: mean survival time, dose: 100.0 mg/kg/injection, schedule: Q01DX001 (ip), vehicle: saline with Tween-80 103 % of control | endpoint: mean survival time, dose: 200.0 mg/kg/injection, schedule: Q01DX001 (ip), vehicle: saline with Tween-80 88 % of control | endpoint: mean survival time, dose: 400.0 mg/kg/injection, schedule: Q01DX001 (ip), vehicle: saline with Tween-80 103 % of control

CCOC(=O)C(N)CSSCC(N)C(=O)OCC (configuration not stated)
inactive: endpoint: mean survival time, dose: 100.0 mg/kg/injection, schedule: Q04DX003 (ip), vehicle: saline 100 % of control | endpoint: mean survival time, dose: 200.0 mg/kg/injection, schedule: Q04DX003 (ip), vehicle: saline 102 % of control | endpoint: mean survival time, dose: 400.0 mg/kg/injection, schedule: Q04DX003 (ip), vehicle: saline 97 % of control

Reference: PubChem BioAssay AID256 (DTP/NCI, 2004)
